According to patent US20160051533A1, “DIAGNOSIS AND PHARMACOLOGICAL TREATMENT OF SEASONAL AFFECTIVE DISORDER AND SYMPTOMS OF SEASONALITY” (Ladd Research LLC, priority 2014, published 2016):
Entries after “also recorded” stand apart in the source; their conditions may differ. Ends that are not written are not given here.

Experiments:
[1] = test system: Wistar female rats; experiment: Forced swimming test (FST) in rats under shifted photoperiods
Method: Animals of CL and LL groups received the vehicles in the same conditions.
The same animals were tested by the same experimenter on the two FST sessions. The same proportion of animals of each group was tested by each experimenter.
The apparatus used for the experiment consisted of glass cylinders (64 cm high, 25 cm diameter) filled with 30 cm 25° C. water. The experiment was recorded with a camcorder, placed in front of the glass cylinder and connected to a screen, allowing the experimenter to watch the test online.
Light intensity was 15-20 Lux at the level of glass cylinders.
The behavior of the rat was measured on the second trial.
Behavior was classified as one of three behaviors: • 1) Immobility, defined as floating in the water without struggling and using only small movements to keep the head above water. • 2) Swimming, defined as moving limbs in an active manner, more than required to keep the head above water and causing movement among quadrants of the cylinder. • 3) Climbing, defined as making active movements with forepaws moving in and out of the water, usually directed against the side of the cylinder. Parameters analyzed were:
1) Imo=the immobility time.
2) Swm=the swimming time.
3) Clb=the climbing time.
A depressive-like profile is indicated by an increase of the immobility time and a decrease of either the swimming time or the climbing time. Conversely, an antidepressant-like effect is indicated by a decrease of the immobility time and an increase of either the swimming time or the climbing time.
(§1) A difference was considered: • 1) Statistically significant: p≦0.05. • 2) Close-to-significant difference: 0.05<p≦0.10. • 3) Not significant: p>0.10.

[2] = target: T1, rat OxR1 (Rattus norvegicus, UniProt P56718); conditions: rat OxR1 cell cultures, t=30 min to t=4 hours; cited from earlier work
T1 sequence (P56718 1-416): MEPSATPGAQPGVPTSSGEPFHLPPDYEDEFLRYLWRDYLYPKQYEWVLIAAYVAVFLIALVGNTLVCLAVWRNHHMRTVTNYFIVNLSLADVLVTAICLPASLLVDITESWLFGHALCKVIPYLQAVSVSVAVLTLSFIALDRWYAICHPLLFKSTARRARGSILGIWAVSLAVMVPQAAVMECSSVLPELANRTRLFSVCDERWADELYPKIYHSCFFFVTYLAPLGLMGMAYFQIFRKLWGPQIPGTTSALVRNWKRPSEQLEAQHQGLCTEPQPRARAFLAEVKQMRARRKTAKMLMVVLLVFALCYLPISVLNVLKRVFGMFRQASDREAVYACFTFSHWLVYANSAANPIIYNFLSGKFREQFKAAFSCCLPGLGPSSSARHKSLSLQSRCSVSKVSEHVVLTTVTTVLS

[3] = Body weight / growth rate in rats under shifted photoperiods; conditions: for Body weight in percent of initial body weight (d−4): short light (SL) rats, mean
Method: Rats were weighed three times a week in order to examine the effect of L/D changes and the effects of treatments on the body weight.
Animals' body weight was recorded three days per week. The body weight on day d-4 was considered as the initial body weight.
Initial body weight (BW) between recorded on day d-4, before the initiation of L/D change analyzed by 1-factor ANOVA and Student's t-test.
Therefore, the following analyses were performed on the BW expressed in percentage of the initial BW. • 2) Effect of L/D condition:
The BW expressed in percentage of the initial BW was compared between by ANOVA for repeated measures (from day dl to day d54): • a) On C-Veh, LL-Veh and SL-Veh groups: overall effect. • b) On C-Veh and LL-Veh groups: effect of LL. • c) On C-Veh and SL-Veh groups: effect of SL. • d) On LL-Veh and SL-Veh groups: difference LL vs. SL. • 3) Effect of vehicle:

[4] = target: T2, OxR2 (Homo sapiens, UniProt O43614); conditions: cited from earlier work
T2 sequence (O43614 1-444): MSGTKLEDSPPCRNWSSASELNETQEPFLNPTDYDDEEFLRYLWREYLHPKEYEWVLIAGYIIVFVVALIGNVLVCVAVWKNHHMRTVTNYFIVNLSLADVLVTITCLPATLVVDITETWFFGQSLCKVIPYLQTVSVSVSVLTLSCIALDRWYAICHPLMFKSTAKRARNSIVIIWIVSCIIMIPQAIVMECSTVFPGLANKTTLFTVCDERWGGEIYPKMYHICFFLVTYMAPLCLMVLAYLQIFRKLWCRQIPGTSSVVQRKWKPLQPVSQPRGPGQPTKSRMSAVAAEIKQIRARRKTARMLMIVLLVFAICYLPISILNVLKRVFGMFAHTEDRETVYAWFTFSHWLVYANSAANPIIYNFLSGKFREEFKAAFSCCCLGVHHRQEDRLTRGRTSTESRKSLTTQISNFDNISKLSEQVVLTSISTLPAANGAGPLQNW

[5] = target: T2, OxR2; conditions: cited from earlier work; remark: listed apart in the source
[6] = target: T2, OxR2; conditions: over 4 hours; cited from earlier work
[7] = test system: rat ventral tegmental area dopamine neurons; conditions: cited from earlier work
[8] = target: T2, OxR2; conditions: read-out: Human OxR2 FLIPR; cited from earlier work
[9] = test system: Wistar female rats; experiment: Open-field test (OFT) in rats under shifted photoperiods; conditions: OFT first session; for effect on the Distance: 100 mg/kg
Method: Activity was tested in open boxes (open-fields: 100 cm wide, 100 cm long, 50 cm high) made of PVC. Animals' activity was recorded by an electronic videotracking detection system (Viewpoint, France) allowing to detect the distance travelled and the time spent in different parts of the open-field.
Light intensity was 7-10 Lux at the center of the open-fields.
Animals were individually placed for a 10-min session in the center of one quadrant of the open-field.
Parameters analyzed were: • 1) One parameter taken as an index of locomotor-exploratory behavior: • The distance travelled in the open-field. • 2) Two parameters taken as indices of anxiety behavior: • a) % Dist Cent=the percentage of distance travelled in the central 60×60 cm area of the open-field. • b) % Time cent=the percentage of time spent in the central 60×60 cm area of the open-field.
as §1

[10] = test system: Wistar female rats; experiment: Elevated-plus maze (EPM) test in rats under shifted photoperiods
From the text: Animals were subjected to the elevated-plus maze (EPM) test only once during the period of the study: at the 43th, 44th or 45th days of treatment (see Table 2).
The apparatus consisted of a plus-shaped maze, elevated 50 cm from the floor, with two opposite open arms, 50×10 cm, crossed at right angles by two arms of the same dimensions, but enclosed by 40-cm-high black opaque walls with an open roof. In addition a 1-cm-high edge made of Plexiglas surrounded the open arms to avoid falls.
Light intensity was 10 Lux at the level of open arms.
The experiment was recorded with a camcorder, placed 1.5 m above the maze and connected to a screen, allowing the experimenter to watch the test online.
Animals were individually placed for a 5-min session in the center of the plus-maze. The number of arm entries and the time spent in arms were recorded. An arm entry is defined as all four paws into the arm.
Other parameters were recorded: the time spent in open arms, the number of open arm entries, the time spent in enclosed arms, the number of enclosed arm entries and the time spent in the center of the maze.
1) Enclosed arm entries: entries into the protected arms of the EPM
as §1

[11] = test system: Wistar female rats; experiment: Marble burying test (MBT) in rats under shifted photoperiods
Method: The marble burying test can score the ability of rats to remove slight stressors, the marbles, from their environments.
Animals of LL-DMSO, LL-Wat, SL-DMSO, SL-Wat and SL-Almo groups were subjected to the marble burying test only once during the period of the study: at the 51st or 52nd days of treatment (see Table 2).
The experiment was conducted in twelve Plexiglas transparent open-boxes (42 cm L, 42 cm W, 40 cm H) filled with 5 cm sawdust. Twenty-five clean glass marbles (15 mm diameter) were evenly spaced 5 cm apart on sawdust. The number of marbles buried was counted at the end of the session.
Light intensity was 30 Lux at the center of the open-boxes.
Animals were individually placed for a 5-min session in the experimental apparatus.
The number of marbles was counted at the end of the session: • 1) Number of marbles not buried. • 2) Number of marbles ⅓ buried. • 3) Number of marbles ⅔ buried. • 4) Number of marbles totally buried.
Parameters analyzed were: • 1) Unburied=the number of marbles not buried. • 2) ≧⅔ buried=number of marbles ⅔ buried+number of marbles totally buried • 3) Tot buried=number of marbles totally buried.

[12] = target: T3, recombinant human OxR1 (Homo sapiens, UniProt O43613); conditions: cited from earlier work
T3 sequence (O43613 1-425): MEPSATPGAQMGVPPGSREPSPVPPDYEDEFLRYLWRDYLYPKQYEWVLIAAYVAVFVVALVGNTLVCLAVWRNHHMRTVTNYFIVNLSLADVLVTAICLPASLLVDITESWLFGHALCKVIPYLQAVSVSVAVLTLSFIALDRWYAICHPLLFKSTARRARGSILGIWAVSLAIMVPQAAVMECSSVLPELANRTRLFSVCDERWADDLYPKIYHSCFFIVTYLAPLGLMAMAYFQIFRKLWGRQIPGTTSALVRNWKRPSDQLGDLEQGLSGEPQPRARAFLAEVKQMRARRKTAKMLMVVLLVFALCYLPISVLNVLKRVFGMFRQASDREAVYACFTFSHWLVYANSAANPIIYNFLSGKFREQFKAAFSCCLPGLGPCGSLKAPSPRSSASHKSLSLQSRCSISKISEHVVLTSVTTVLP

[13] = test system: mice; conditions: no photoperiod manipulation; cited from earlier work
[14] = FST second session, SL-Almo vs SL-Wat, 100 mg/kg PO, 100 mg/kg
[15] = FST second session, short light (SL) rats, group mean
[16] = SL-Almo vs SL-Wat, 100 mg/kg PO
[17] = Short Light rats, Almorexant 100 mg/kg PO daily, group mean
[18] = EPM, SL-Almo vs SL-Wat, 100 mg/kg PO, 100 mg/kg
[19] = EPM, short light (SL) rats, group mean, water vehicle comparison groups
[20] = MBT reanalysis, SL rats, almorexant
[21] = MBT, SL-Almo vs SL-Wat, 100 mg/kg PO
[22] = MBT, short light (SL) rats, group mean

Question: What does the source list for `CNC(=O)[C@@H](c1ccccc1)N1CCc2cc(OC)c(OC)cc2[C@@H]1CCc1ccc(C(F)(F)F)cc1.Cl` [Almorexant HCl]?
Answer: effect on the swimming time (Swm) ([1]; FST second session, SL-Almo vs SL-Wat, 100 mg/kg PO): Did not significantly modify; effect on the climbing time (Clb) [1, 14]: increased; also recorded: Tended to increase; effect on the immobility time (Imo) [1, 14]: Decreased; antidepressant-like effect ([1]; FST second session, almorexant 100 mg/kg PO): induced an antidepressant-like effect; Immobility time (Imo) [1, 15]: 111.5 s; climbing time (Clb) [1, 15]: 68.7 s; percentage swimming time (Swim) [1, 15]: 119.8 s; FST 2 binned climbing time (FIG. 13) ([1]; double blind reanalysis of video, SL-Almo vs SL-Veh): statistically significant anti-depressant and anti-despair effect; change of Ki over time [2]: remains relatively unchanged; growth rate ([3]; SL-Almo vs SL-Veh, OG (FIG. 30)): consistently found to increase growth rate back to LL levels; body weight (BW, percent of initial BW) ([3]; SL-Almo vs SL-Wat, d29 to d54, 100 mg/kg PO): increased the BW; Body weight in percent of initial body weight (d−4) ([3]; d29-t1, during treatment): 164.4%; Body weight in percent of initial body weight (d−4) ([3]; d31-t3, during treatment): 167.0%; Body weight in percent of initial body weight (d−4) ([3]; d33-t5, during treatment): 168.8%; Body weight in percent of initial body weight (d−4) ([3]; d36-t8, during treatment): 173.4%; Body weight in percent of initial body weight (d−4) ([3]; d38-t10, during treatment): 175.5%; Body weight in percent of initial body weight (d−4) ([3]; d40-t12, during treatment): 176.6%; Body weight in percent of initial body weight (d−4) ([3]; d43-t15, during treatment): 179.7%; Body weight in percent of initial body weight (d−4) ([3]; d45-t17, during treatment): 181.7%; Body weight in percent of initial body weight (d−4) ([3]; d47-t19, during treatment): 183.5%; Body weight in percent of initial body weight (d−4) ([3]; d50-t22, during treatment): 185.5%; Body weight in percent of initial body weight (d−4) ([3]; d52-t24, during treatment): 187.5%; Body weight in percent of initial body weight (d−4) ([3]; d54-t26, during treatment): 187.0%; Ki [4]: 0.9 nM; Kd ([5]; [3H] Almorexant, human OxR2): 0.17 nM; classification of antagonism at hOxR2 [5]: non-competitive antagonist; change of OxR2 Ki over time [6]: decrease over 4 hours; block of the effect of orexin A on firing ([7]; 1 micro molar of Almorexant): completely block the effect of orexin A; IC50 [8]: 15.6 nM; effect on the % Dist Center [9, 16]: Did not significantly modify; effect on the % Time Center [9, 16]: Did not significantly modify; effect on the Distance ([9]; SL-Almo vs SL-Wat, 100 mg/kg PO, listed as Almorexant): Tended to reduce the decrease in mobility caused by the SL; effect on the Distance ([9]; SL-Almo vs SL-Wat, 100 mg/kg PO, listed as almorexant): Did not significantly modify; % Dist Cent [9, 17]: 9.9%; % Time Cent [9, 17]: 6.7%; Distance travelled [9, 17]: 8786.5 cm; anxiety-like behavior ([9]; almorexant 100 mg/kg PO): did not induce effect; motor exploratory activity ([9]; almorexant 100 mg/kg PO): did not modify; SL-increased anxiety-like behaviors (FIG. 10, enclosed arms) ([10]; EPM reanalysis, OG almorexant): treated with statistical significance; effect on the % OAE [10, 18]: no significant effect; also recorded: Did not significantly modify; effect on the % TOA [10, 18]: no significant effect; also recorded: Did not significantly modify; effect on the AE [10, 18]: increased; also recorded: Tended to increase; anxiety-like behavior ([10]; EPM, almorexant 100 mg/kg PO): did not induce effect; motor exploratory activity ([10]; EPM, almorexant 100 mg/kg PO): increased; Number of arm entries (AE) [10, 19]: 23.8; Percentage of open arm entries (% OAE) [10, 19]: 38.1%; Percentage of time spent in open arms (% TOA) [10, 19]: 34.9%; marbles greater than ⅓ buried (FIG. 20) [11, 20]: treated with statistical significance; marbles ⅓ buried (FIG. 22) [11, 20]: treated statistically significantly; marbles ⅓ or less buried (FIG. 21) [11, 20]: treated with statistical significance; unburied marbles [11, 21]: Reduced the increase; ≧⅔ buried marbles [11, 21]: Reduced the decrease; Number of unburied marbles [11, 22]: 5.3; number of totally buried [11, 22]: 8.9; number of ≧⅔ buried marbles [11, 22]: 16.3; binding and dissociation rates at hOxR1 [12]: fast binding and dissociation rates; classification of antagonism at hOxR1 [12]: competitive antagonist

Question: Which “immobility in Forced Swim Test and Tail Suspension Test” value [13] does the source give for `Cc1nc2ccc(NC(=O)Nc3ccnc4cccnc34)cc2o1` [SB-334867] here?
Answer: Its value is “decreased immobility”.

Question: For “orexin A: neuropeptide of 33 amino acid residues with two disulfide bonds, derived from prepro-orexin (QPLPDCCRQKTCSCRLYELLHGAGNHAAGILTL; disulfide (positions not given here); ends not checked; also: two disulfide bonds, pairing not given here; UniProt O43612 34-66, looked up)”, which basal firing frequency ([7]; 0.0001-10 micro molar orexin A, nearly half of the tested neurons) is on record?
Answer: The basal firing frequency was 175+/−17 % of control.
